Results: patent US11453632B2, “1-phenyl-2-phenylethane derivative” (KAO CORPORATION, priority 2018, dated 2022)

Key:
[1] = tested on: uterus of ovariectomized rat; experiment: Uterus weight in ovariectomized (OVX) rat; assay type: in vivo; conditions: 4 μg/kg/day subcutaneous, vs negative solvent group
Protocol: 8-week-old female Crl:CD (SD) rats were obtained from Charles River Laboratories Japan, Inc. and individually identified by the ear punching method on the receipt date. Then, an acclimatization period was established for 1 week. The animals were raised in a rearing room under a set environment involving a temperature of 22±3° C., a humidity of 50±20%, air ventilation from 13 to 17 times/hour, and a lighting time from 8:00 to 20:00. During the acclimatization period, the rats were allowed to freely ingest solid feed CRF-1 (Oriental Yeast Co., Ltd.). Since the feeding with CRF-1, the rats were allowed to freely ingest customized feed AIN-93G (Oriental Yeast Co., Ltd.) free from components derived from soybeans.
On the end date of acclimatization and the following day, the flank cavity was opened under isoflurane anesthesia to harvest the right and left ovaries including fallopian tubes. Other non-OVX rats were subjected to only opening and suture (sham surgery). Immediately thereafter, an antibiotic was subcutaneously administered at a dose of 100 μl/animal. After the surgery, the sham surgery or OVX animals were given customized feed and raised for approximately 1 week.
From 1.5 hours before a shift from the light phase to the dark phase (18:30), a negative solvent (DMSO) or a test substance was subcutaneously administered at a dose of 0.5 ml/kg to the back of the neck according to Table 3 described below using a syringe and an injection needle.
After the completion of all procedures of measurement and analysis, the rats were euthanized by blood letting under isoflurane anesthesia, and the uterus was harvested. Wet weights were measured.
Skin temperatures differed largely among individuals, and the Smirnov-Grubbs test was conducted in order to exclude outliers beforehand. Results of measuring tail skin temperatures and results of measuring uterus weights were statistically analyzed by testing using the Dunnett's test.

ERβ = biological target: T1, ERβ (Homo sapiens, UniProt Q92731); experiment: Ability to activate transcription mediated by ERβ (pcDNA3-ERβ, pERE luciferase, HEK293 cells); assay type: cell-based; conditions: negative control 0.001475
T1 construct: host or cells: HEK293
Protocol: (§1) 1) Experimental Method (Measurement of Transcriptional Activity Mediated by ERs)
(§2) HEK293 cells were inoculated at a cell density of 4.0×10^4 cells/well to a 96-well plate. After 12 hours therefrom, the medium was replaced with a culture solution (DMEM containing 5% (v/v) charcoal-treated serum). The cells were cotransfected with pcDNA3-ERα or pcDNA3-ERβ (Promega Corp.) and pERE and pRL-CMV (Promega Corp.) using Lipofectamine 2000 (Invitrogen Corp.) according to the protocol attached to the product. 24 hours after transfection, the medium was replaced with a culture medium containing a test sample, followed by culture for another 24 hours. Then, luciferase activity was measured using Dual-Glo™ Luciferase Assay System (Promega Corp.) according to the attached protocol. The luminescence intensity of firefly luciferase (index for the ability to activate transcription mediated by ERE) was divided by the luminescence intensity of Renilla reniformis luciferase (index for the transfection efficiency of the plasmids) to calculate a relative light unit (RLU).

ERα LBD = biological target: T2, ERα LBD (Homo sapiens, UniProt P03372); experiment: Ability to bind to ERα: pBIND-ERα LBD / GAL4 luciferase reporter in HEK293 cells; assay type: cell-based; parameters: key: firefly luciferase / Renilla luciferase luminescence ratio; conditions: negative control 0.00847035
T2 construct: host or cells: HEK293
T2 sequence (P03372 311-547 limits assumed): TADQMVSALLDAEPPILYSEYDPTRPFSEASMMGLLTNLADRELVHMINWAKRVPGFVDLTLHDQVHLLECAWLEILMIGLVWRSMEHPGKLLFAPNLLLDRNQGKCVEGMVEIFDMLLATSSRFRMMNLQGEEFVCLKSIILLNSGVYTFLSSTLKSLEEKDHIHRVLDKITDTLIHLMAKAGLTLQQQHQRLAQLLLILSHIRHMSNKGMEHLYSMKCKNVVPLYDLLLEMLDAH
Protocol: (§3) A human kidney-derived cell line HEK293 was cultured (37° C., 5% CO2) in Dulbecco's modified Eagle medium (hereinafter, abbreviated to DMEM) containing 10% (v/v) fetal bovine serum (FBS) and penicillin/streptomycin.
(§4) 2) Measurement of Binding Activity Against ERs
(§5) Specifically, HEK293 cells were inoculated at a cell density of 4.0×10^4 cells/well to a 96-well plate. After 12 hours therefrom, the medium was replaced with a culture solution (DMEM containing 5% (v/v) charcoal-treated serum). The cells were cotransfected with pBIND-ERα for the expression of ERα LBD or pBIND-ERβ for the expression of ERβ LBD (Promega Corp.) and pGL4.35[luc2P/9XGAL4UAS/Hygro](Promega Corp.) using Lipofectamine 2000 (Invitrogen Corp.) according to the protocol attached to the product. 24 hours after transfection, the medium was replaced with a culture solution containing a test sample, followed by culture for another 24 hours. The activity measurement of firefly luciferase (index for the ligand binding activity of ER) and Renilla reniformis luciferase (index for the transfection efficiency of the plasmids) was carried out using Dual-Glo™ Luciferase Assay System (Promega Corp.) according to the attached protocol. The luminescence intensity of the firefly luciferase was divided by the luminescence intensity of the Renilla reniformis luciferase to calculate a relative light unit (RLU).

ERβ LBD = biological target: T3, ERβ LBD (Homo sapiens, UniProt Q92731); experiment: Ability to bind to ERβ: pBIND-ERβ LBD / GAL4 luciferase reporter in HEK293 cells; assay type: cell-based; parameters: key: RLU = firefly luminescence / Renilla luminescence; conditions: negative control 0.0118997
T3 construct: host or cells: HEK293
Protocol: This evaluation system is a system exploiting difference in the sequence of the ligand binding domain (LBD) between ERα and ERβ (J Endocrinol 163: 379-383 (1999)), and enables selective activation of ERβ to be evaluated by determining the binding of a ligand to LBD and the activation of ER.
as §3, §4
as §5, with “This measurement was carried out according to the method described in JP-B-5990058. Specifically,” for “Specifically,”

ERα = biological target: T4, ERα (Homo sapiens, UniProt P03372); experiment: Ability to activate transcription mediated by ERα (pcDNA3-ERα, pERE luciferase, HEK293 cells); assay type: cell-based; conditions: negative control 0.004573
T4 construct: host or cells: HEK293
T4 sequence (P03372 1-595): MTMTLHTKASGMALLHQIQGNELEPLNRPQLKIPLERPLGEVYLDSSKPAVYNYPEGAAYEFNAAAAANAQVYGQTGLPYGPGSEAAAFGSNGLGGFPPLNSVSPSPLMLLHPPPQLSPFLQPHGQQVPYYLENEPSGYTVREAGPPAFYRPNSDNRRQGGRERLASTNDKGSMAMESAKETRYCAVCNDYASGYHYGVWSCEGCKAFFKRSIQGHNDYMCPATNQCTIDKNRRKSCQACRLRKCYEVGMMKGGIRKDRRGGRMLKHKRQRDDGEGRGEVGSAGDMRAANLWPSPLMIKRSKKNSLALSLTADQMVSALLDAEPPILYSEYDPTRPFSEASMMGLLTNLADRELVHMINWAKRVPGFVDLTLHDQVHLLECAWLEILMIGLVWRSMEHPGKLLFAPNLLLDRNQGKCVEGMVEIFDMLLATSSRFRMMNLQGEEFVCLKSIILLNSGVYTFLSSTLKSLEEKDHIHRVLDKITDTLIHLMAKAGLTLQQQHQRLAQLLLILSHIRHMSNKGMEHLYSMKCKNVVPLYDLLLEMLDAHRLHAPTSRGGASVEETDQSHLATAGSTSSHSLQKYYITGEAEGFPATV
Protocol: as §1, §2

T1 sequence (Q92731 whole entry): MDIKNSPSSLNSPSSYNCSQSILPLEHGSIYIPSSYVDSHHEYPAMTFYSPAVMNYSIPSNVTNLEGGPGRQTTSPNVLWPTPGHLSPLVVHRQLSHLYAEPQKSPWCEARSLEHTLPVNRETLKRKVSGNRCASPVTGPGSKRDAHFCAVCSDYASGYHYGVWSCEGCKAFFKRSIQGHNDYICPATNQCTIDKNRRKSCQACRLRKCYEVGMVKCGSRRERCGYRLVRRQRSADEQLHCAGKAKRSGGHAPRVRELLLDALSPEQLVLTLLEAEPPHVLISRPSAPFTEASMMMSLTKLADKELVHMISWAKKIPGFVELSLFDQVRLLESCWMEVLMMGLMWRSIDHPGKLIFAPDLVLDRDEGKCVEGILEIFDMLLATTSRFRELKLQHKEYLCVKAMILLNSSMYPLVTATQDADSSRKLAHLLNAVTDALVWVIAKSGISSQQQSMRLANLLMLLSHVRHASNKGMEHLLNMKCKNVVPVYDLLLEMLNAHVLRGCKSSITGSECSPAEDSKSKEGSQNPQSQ
T3 sequence (Q92731 264-498 limits assumed): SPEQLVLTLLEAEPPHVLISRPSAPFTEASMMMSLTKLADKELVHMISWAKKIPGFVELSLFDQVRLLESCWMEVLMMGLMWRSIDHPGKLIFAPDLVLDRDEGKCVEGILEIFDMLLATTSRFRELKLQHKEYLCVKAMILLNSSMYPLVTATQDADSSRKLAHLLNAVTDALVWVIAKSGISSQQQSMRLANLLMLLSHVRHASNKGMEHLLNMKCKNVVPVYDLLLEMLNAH

relative light unit (RLU), transcription activation ERβ (ERβ; 0.01 pM) | relative light unit (RLU), transcription activation ERβ (ERβ; 0.1 pM) | relative light unit (RLU), transcription activation ERβ (ERβ; 1 pM) | relative light unit (RLU), transcription activation ERβ (ERβ; 10 pM) | relative light unit (RLU), transcription activation ERβ (ERβ; 100 pM) | relative light unit (RLU), transcription activation ERβ (ERβ; 1000 pM) | relative light unit (RLU), transcription activation ERβ (ERβ; 10000 pM) | relative light unit (RLU), ligand binding activity ERα (ERα LBD; 0.01 nM) | relative light unit (RLU), ligand binding activity ERα (ERα LBD; 0.1 nM) | relative light unit (RLU), ligand binding activity ERα (ERα LBD; 1 nM) | relative light unit (RLU), ligand binding activity ERα (ERα LBD; 10 nM) | relative light unit (RLU), ligand binding activity ERα (ERα LBD; 100 nM) | relative light unit (RLU), ligand binding activity ERβ (ERβ LBD; 0.01 nM) | relative light unit (RLU), ligand binding activity ERβ (ERβ LBD; 0.1 nM) | relative light unit (RLU), ligand binding activity ERβ (ERβ LBD; 1 nM) | relative light unit (RLU), ligand binding activity ERβ (ERβ LBD; 10 nM) | relative light unit (RLU), ligand binding activity ERβ (ERβ LBD; 100 nM) | relative light unit (RLU), transcription activation ERα (ERα; 0.1 pM) | relative light unit (RLU), transcription activation ERα (ERα; 1 pM) | relative light unit (RLU), transcription activation ERα (ERα; 10 pM) | Compound | also measured
– | – | – | – | – | – | – | – | – | – | – | – | – | – | – | – | – | – | – | – | C[C@]12CC[C@@H]3c4ccc(O)cc4CC[C@H]3[C@@H]1CC[C@@H]2O [E2, estradiol, reference compound] | uterus wet weight (FIG. 6) [1]: significantly increased
0.003231 | 0.00681 | 0.01281 | 0.03479 | 0.03642 | 0.03659 | 0.03706 | 0.03608 | 0.1312 | 1.177 | 2.968 | 3.391 | 0.6452 | 2.101 | 2.317 | 2.025 | 2.304 | 0.01194 | 0.01337 | 0.01971 | 4-(4,4-difluoro-2-(4-hydroxyphenyl)but-3-en-1-yl)-3,5 [Compound 18-F] | relative light unit (RLU), transcription activation ERα (ERα; 100 pM): 0.04067; relative light unit (RLU), transcription activation ERα (ERα; 1000 pM): 0.06395; relative light unit (RLU), transcription activation ERα (ERα; 10000 pM): 0.06152
0.002068 | 0.002153 | 0.00383 | 0.01191 | 0.02336 | 0.03253 | 0.03471 | 0.02799 | 0.0373 | 0.02919 | 0.06191 | 1.588 | 0.06046 | 0.9104 | 1.877 | 2.074 | 2.408 | 0.006825 | 0.008059 | 0.008285 | Oc1ccc(CC(C=C(F)F)c2ccc(O)cc2)cc1 (stereo not drawn) [Compound 7, 4,4′-(4,4-difluorobut-3-ene-1,2-diyl)diphenol] | relative light unit (RLU), transcription activation ERα (ERα; 100 pM): 0.01621; relative light unit (RLU), transcription activation ERα (ERα; 1000 pM): 0.04026; relative light unit (RLU), transcription activation ERα (ERα; 10000 pM): 0.04776
– | – | – | – | – | – | – | – | – | – | – | – | – | – | – | – | – | – | – | – | Oc1ccc(CC(c2ccc(O)cc2)C2CCCCC2)cc1 (stereo not drawn) [Compound 4, 4,4′-(1-cyclohexylethane-1,2-diyl)diphenol] | melting point: 74 to 76 °C
